From US9676715B2, “Bis-indolic derivatives, a process for preparing the same and their uses as a drug” (UNIVERSITE JOSEPH FOURIER, priority 2011, dated 2017)
Values after ≈ are worked out from the molar mass of the structure shown.

How the values were obtained:
[1] = system: S. aureus ATCC 106414 (VISA); assay: MIC, microdilution method (9.1); type: cell-based, Staphylococcus aureus; conditions: Staphylococcus aureus, read after 18 h, read-out: MIC
Description: (§1) The microdilution method recommended by the Clinical and Laboratory Standard Institute [M07-A8, Vol. 29, No. 2] was used. The activity of indolic compounds was tested against 29 bacterial strains belonging to 17 different species and 12 different genera (Staphylococcus, Streptococcus, Enterococcus, Listeria, Bacillus, Haemophilus, Escherichia, Klebsiella, Enterobacter, Serratia, Pseudomonas, and Acinetobacter). Bacterial inocula were prepared in Mueller Hinton broth (MH2, bioMérieux, Marcy L'Etoile, France), supplemented with 10% sheep blood for fastidious species (i.e., Streptococcus pneumoniae and Haemophilus influenzae). They were dispensed in 96 well microtiter plates (5×10^5 CFU/ml of final inoculum). Indolic compounds were added to the wells as to obtain two-fold serial concentrations (0.50-128 mg/L of final concentrations). Plates were incubated at 37° C. in ambient air, or at 37° C. in 5% CO2 enriched atmosphere for fastidious species. […] Drug-free cultures served as growth controls. Cultures receiving gentamicin, ciprofloxacin or cefotaxime served as positive controls.

S. aureus ATCC 25923 = assay: MIC, microdilution method (9.1); type: cell-based, Staphylococcus aureus; conditions: Staphylococcus aureus, ATCC25923, read after 18 h, read-out: MIC
Description: as §1

S. aureus ATCC 29213 = assay: MIC, microdilution method (9.1); type: cell-based, Staphylococcus aureus; conditions: Staphylococcus aureus, ATCC29213, read after 18 h, read-out: MIC
Description: as §1

[2] = system: S. aureus ATCC 33592 (MRSA); assay: MIC, microdilution method (9.1); type: cell-based, Staphylococcus aureus; conditions: Staphylococcus aureus, read after 18 h, read-out: MIC
Description: as §1

S. aureus ATCC 6538 = assay: MIC, microdilution method (9.1); type: cell-based, Staphylococcus aureus; conditions: Staphylococcus aureus, ATCC6538, read after 18 h, read-out: MIC
Description: as §1

S. aureus ATCC 9144 = assay: MIC, microdilution method (9.1); type: cell-based, Staphylococcus aureus; conditions: Staphylococcus aureus, ATCC9144, read after 18 h, read-out: MIC
Description: as §1

S. aureus CIP 103428 = assay: MIC, microdilution method (9.1); type: cell-based, Staphylococcus aureus; conditions: Staphylococcus aureus, CIP103428, read after 18 h, read-out: MIC
Description: as §1

[3] = system: S. aureus CIP 65.25 (MRSA); assay: MIC, microdilution method (9.1); type: cell-based, Staphylococcus aureus; conditions: Staphylococcus aureus, read after 18 h, read-out: MIC
Description: as §1

S. aureus CIP 65.6 = assay: MIC, microdilution method (9.1); type: cell-based, Staphylococcus aureus; conditions: Staphylococcus aureus, CIP65, read after 18 h, read-out: MIC
Description: as §1

S. aureus SA-1199B = assay: MIC, microdilution method (9.1); type: cell-based, Staphylococcus aureus; conditions: Staphylococcus aureus, SA1199B, 18 h
Description: as §1

[4] = system: S. epidermidis ATCC 12228; assay: MIC, microdilution method (9.1); type: cell-based, Staphylococcus epidermidis; conditions: Staphylococcus epidermidis, ATCC12228, read after 18 h, read-out: MIC
Description: as §1

[5] = system: S. epidermidis CIP 103627; assay: MIC, microdilution method (9.1); type: cell-based, Staphylococcus epidermidis; conditions: Staphylococcus epidermidis, CIP103627, read after 18 h, read-out: MIC
Description: as §1

S. epidermidis CIP 81.55 = assay: MIC, microdilution method (9.1); type: cell-based, Staphylococcus epidermidis; conditions: Staphylococcus epidermidis, CIP81, read after 18 h, read-out: MIC
Description: as §1

[6] = system: HCT116 (human colon tumor); assay: In vitro cytotoxicity; type: cell-based; conditions: read-out: % of cellular growth inhibition; for inhibition at 10 µM: HCT-116, 10^−5 M; for inhibition at 1 µM: HCT-116, 10^−6 M
Description: (§2) In vitro cytotoxicity was assayed on three cell lines—KB (human mouth carcinoma), MCR5 (human lung fibroblast) and HCT116 (human colon tumor). Results are presented in table IV as % of cellular growth inhibition in presence of 10^−5 M and 10^−6 M of the tested bis-indolic derivatives.

[7] = system: KB (human mouth carcinoma); assay: In vitro cytotoxicity; type: cell-based; conditions: read-out: % of cellular growth inhibition; for inhibition at 10 µM: 10^−5 M; for inhibition at 1 µM: 10^−6 M
Description: as §2

[8] = system: MRC5 (human lung fibroblast); assay: In vitro cytotoxicity; type: cell-based; conditions: read-out: % of cellular growth inhibition; for inhibition at 10 µM: 10^−5 M; for inhibition at 1 µM: 10^−6 M
Description: as §2

SMILES | MIC [1] | MIC (S. aureus ATCC 25923) | MIC (S. aureus ATCC 29213) | MIC [2] | MIC (S. aureus ATCC 6538) | MIC (S. aureus ATCC 9144) | MIC (S. aureus CIP 103428) | MIC [3] | MIC (S. aureus CIP 65.6) | MIC (S. aureus SA-1199B) | MIC [4] | MIC [5] | MIC (S. epidermidis CIP 81.55) | inhibition at 10 µM [6] | inhibition at 1 µM [6] | inhibition at 10 µM [7] | inhibition at 1 µM [7] | inhibition at 10 µM [8] | inhibition at 1 µM [8] | melting point
O=C(NC(CO)c1c[nH]c2ccc(Br)cc12)c1c[nH]c2ccc(Br)cc12 (stereo not shown) [Compound 13, 5-Bromo-N-(1-(5-bromo-1H-indol-3-yl)-2-hydroxyethyl)-1H-indole-3-carboxamide] | 4 µg/mL (≈ 8.38 µM) | 4 µg/mL (≈ 8.38 µM) | 4 µg/mL (≈ 8.38 µM) | 4 µg/mL (≈ 8.38 µM) | 4 µg/mL (≈ 8.38 µM) | 4 µg/mL (≈ 8.38 µM) | 4 µg/mL (≈ 8.38 µM) | 4 µg/mL (≈ 8.38 µM) | 4 µg/mL (≈ 8.38 µM) | 8 µg/mL (≈ 16.8 µM) | 4 µg/mL (≈ 8.38 µM) | 4 µg/mL (≈ 8.38 µM) | 4 µg/mL (≈ 8.38 µM) | 12 ± 5% | 0% | 1 ± 4% | 0% | 6 ± 1% | 0% | 155 °C
COC(=O)C(NC(=O)c1c[nH]c2ccc(Br)cc12)c1c[nH]c2ccc(Br)cc12 (stereo not shown) [Compound 11, Methyl 2-(5-bromo-1H-indol-3-yl)-2-(5-bromo-1H-indole-3-carboxamido)acetate] | 4 µg/mL (≈ 7.92 µM) | 4 µg/mL (≈ 7.92 µM) | 4 µg/mL (≈ 7.92 µM) | 4 µg/mL (≈ 7.92 µM) | 4 µg/mL (≈ 7.92 µM) | 4 µg/mL (≈ 7.92 µM) | 4 µg/mL (≈ 7.92 µM) | 4 µg/mL (≈ 7.92 µM) | 4 µg/mL (≈ 7.92 µM) | 4 µg/mL (≈ 7.92 µM) | 4 µg/mL (≈ 7.92 µM) | 4 µg/mL (≈ 7.92 µM) | 4 µg/mL (≈ 7.92 µM) | 51 ± 5% | 0% | 51 ± 1% | 0% | 28 ± 9% | 0% | 126 °C
